# Experimental data published in ChEMBL document CHEMBL4422639, “Novel 2, 8-bit derivatives of quinolines attenuate Pseudomonas aeruginosa virulence and biofilm formation” (Bioorg Med Chem Lett, 2019).
# Active and inactive are the calls of the source. The calls are words filed in the database; no cut-off is given here.
# Legend:
# Pseudomonas aeruginosa [1] = assay: Antibiofilm activity against Pseudomonas aeruginosa PAO1 at 10 uM after 18 hrs by crystal violet staining-based assay; type: functional, organism-based
# Pseudomonas aeruginosa [2] = assay: Antibacterial activity against Pseudomonas aeruginosa PAO1 by standard optical density assay; type: functional, organism-based
# [3] = molecular target: 3-(3-hydroxydecanoyloxy)decanoate synthase (Pseudomonas aeruginosa (strain ATCC 15692 / PAO1 / 1C / PRS 101 / LMG12228)) (UniProt Q51559); assay: Inhibition of rhlA in Pseudomonas aeruginosa PAO1 containing […] translational reporter fusion at 20 uM after 16 hrs by LacZ reporter gene assay
# [4] = system: Pseudomonas aeruginosa PAO1; assay: Inhibition of PQS in Pseudomonas aeruginosa PAO1 assessed as decrease in pyocyanin production at 10 uM after 16 hrs by standard optical density assay
# [5] = molecular target: 3-(3-hydroxydecanoyloxy)decanoate synthase (Pseudomonas aeruginosa (strain ATCC 15692 / PAO1 / 1C / PRS 101 / LMG12228)) (UniProt Q51559); assay: Inhibition of rhlA in Pseudomonas aeruginosa PAO1 assessed as decrease in rhamnolipid production at 10 uM after 16 hrs by standard optical density assay
# [6] = system: Pseudomonas aeruginosa PAO1; assay: Inhibition of quorum sensing protein iqs in Pseudomonas aeruginosa PAO1 in phosphate limited medium assessed as reduction in biofilm formation at 10 uM after 18 hrs by crystal violet staining-based assay
# [7] = molecular target: Elastase (Pseudomonas aeruginosa (strain ATCC 15692 / PAO1 / 1C / PRS 101 / LMG12228)) (UniProt P14756); assay: Inhibition of lasB in Pseudomonas aeruginosa PAO1 containing lasB-lacZ translational reporter fusion at 20 uM after 16 hrs by LacZ reporter gene assay
# Elastase (Pseudomonas aeruginosa (strain ATCC 15692 / PAO1 / 1C / PRS 101 / LMG12228)), sequence (P14756 198-498 limits assumed): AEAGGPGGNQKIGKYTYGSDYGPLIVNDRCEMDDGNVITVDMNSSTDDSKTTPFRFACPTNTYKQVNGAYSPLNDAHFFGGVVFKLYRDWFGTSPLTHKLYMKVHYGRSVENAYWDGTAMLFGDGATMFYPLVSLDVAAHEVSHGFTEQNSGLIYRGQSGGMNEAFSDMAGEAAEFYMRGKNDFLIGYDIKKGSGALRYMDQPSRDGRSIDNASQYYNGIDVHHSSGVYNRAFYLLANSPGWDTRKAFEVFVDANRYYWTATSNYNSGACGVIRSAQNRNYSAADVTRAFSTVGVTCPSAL
# [8] = molecular target: T1, Anthranilate--CoA ligase (Pseudomonas aeruginosa (strain ATCC 15692 / DSM 22644 / CIP 104116 /JCM 14847 / LMG 12228 / 1C / PRS 101 / PAO1)) (UniProt Q9I4X3); assay: Inhibition of pqsA in Pseudomonas aeruginosa PAO1 containing […] translational reporter fusion at 20 uM after 16 hrs by LacZ reporter gene assay
# T1 sequence (whole entry): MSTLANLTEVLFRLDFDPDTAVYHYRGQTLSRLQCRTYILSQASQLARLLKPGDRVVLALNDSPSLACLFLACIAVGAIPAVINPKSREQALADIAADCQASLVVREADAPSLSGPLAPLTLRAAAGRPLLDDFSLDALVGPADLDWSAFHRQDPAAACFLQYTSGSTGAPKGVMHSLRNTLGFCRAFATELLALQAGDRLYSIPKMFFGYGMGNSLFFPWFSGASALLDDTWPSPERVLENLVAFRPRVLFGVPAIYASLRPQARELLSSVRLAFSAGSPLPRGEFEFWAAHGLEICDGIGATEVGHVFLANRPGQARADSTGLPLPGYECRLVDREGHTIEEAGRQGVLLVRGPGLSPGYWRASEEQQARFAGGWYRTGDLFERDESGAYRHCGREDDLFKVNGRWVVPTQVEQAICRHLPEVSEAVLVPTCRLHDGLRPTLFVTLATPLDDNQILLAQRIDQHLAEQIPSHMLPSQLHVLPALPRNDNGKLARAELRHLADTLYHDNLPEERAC
MIC (Pseudomonas aeruginosa [2]),SMILES,Activity (Pseudomonas aeruginosa [1]),further results
> 256 µM,CC(=O)Oc1cccc2ccc(-c3ccc(C(F)(F)F)cc3)nc12,Active,–
> 256 µM,CCCCCCC(=O)Oc1cccc2ccc(-c3ccc(C(F)(F)F)cc3)nc12,Active,inhibition [3]: Active; inhibition [4]: inactive; inhibition [5]: Active; inhibition [6]: inactive; inhibition [7]: inactive; inhibition [8]: inactive
> 256 µM,COc1ccc(C(=O)Oc2cccc3ccc(-c4ccc(C(F)(F)F)cc4)nc23)cc1,Active,–
> 256 µM,CCC(=O)Oc1cccc2ccc(-c3ccc(C(F)(F)F)cc3)nc12,Active,–
> 256 µM,CCCC(=O)Oc1cccc2ccc(-c3ccc(C(F)(F)F)cc3)nc12,Active,–
> 256 µM,CCCCCC(=O)Oc1cccc2ccc(-c3ccc(C(F)(F)F)cc3)nc12,Active,–
> 256 µM,Oc1cccc2ccc(-c3ccc(C(F)(F)F)cc3)nc12,Active,–
> 256 µM,CCCCCCC(=O)Oc1cccc2ccc(-c3ccc(F)cc3)nc12,–,–
> 256 µM,CCCCC(=O)Oc1cccc2ccc(-c3ccc(C(F)(F)F)cc3)nc12,Active,–
> 256 µM,Cc1ccc(C(=O)Oc2cccc3ccc(-c4cccc(C(F)(F)F)c4)nc23)cc1,Active,–
> 256 µM,COc1ccc(C(=O)Oc2cccc3ccc(-c4cccc(C(F)(F)F)c4)nc23)cc1,Active,inhibition [3]: Active; inhibition [4]: inactive; inhibition [5]: Active; inhibition [6]: inactive; inhibition [7]: inactive; inhibition [8]: inactive
> 256 µM,O=C(Oc1cccc2ccc(-c3ccc(C(F)(F)F)cc3)nc12)c1ccccc1,Active,–
> 256 µM,O=C(Oc1cccc2ccc(-c3ccc(C(F)(F)F)cc3)nc12)c1ccc(Cl)cc1,Active,–
> 256 µM,O=C(Oc1cccc2ccc(-c3cccc(C(F)(F)F)c3)nc12)c1ccccc1,Active,–
> 256 µM,O=C(Oc1cccc2ccc(-c3cccc(C(F)(F)F)c3)nc12)c1ccc(Cl)cc1,Active,–
> 256 µM,CCCCCCC(=O)Oc1cccc2ccc(-c3cccc(C(F)(F)F)c3)nc12,Active,–
> 256 µM,O=C(Oc1cccc2ccc(-c3ccc(C(F)(F)F)cc3)nc12)c1ccco1,Active,–
> 256 µM,O=C(Oc1cccc2ccc(-c3cccc(C(F)(F)F)c3)nc12)c1ccco1,Active,–
> 256 µM,Cc1ccc(C(=O)Oc2cccc3ccc(-c4ccc(C(F)(F)F)cc4)nc23)cc1,Active,–
> 256 µM,CCCCCCC(=O)Oc1cccc2ccc(-c3cc(C(F)(F)F)cc(C(F)(F)F)c3)nc12,–,–
> 256 µM,CCCCCC(=O)Oc1cccc2ccc(-c3cccc(C(F)(F)F)c3)nc12,Active,–
